Reference: paper PMC11062899, “De novo development of small cyclic peptides that are orally bioavailable” (Nature Chemical Biology, 2023)
Several values for one entry are separate records, joined by “and”; a condition that tells them apart may be missing. Identical values can stand only once. Like-named read-outs stand apart in the source and are kept apart here.

Assays:
[1] = Passive artificial membrane permeability (PAMPA);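 as to Permeability% Average: top well sample relative to theoretical equilibrium sample by TIC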
human α-thrombin = human α-thrombin (Homo sapiens, UniProt P00734); test: Protease inhibition, Ki for human α-thrombin (fluorogenic substrate Z-Gly-Gly-Arg-AMC); format: biochemical; details: for Human alpha thrombin inhibition, slope normalized to DMSO: replicates R1-R3
Method: (§1) The inhibition constants (Ki) of cyclic peptides were calculated by measuring thrombin inhibition in the presence of different concentrations of the cyclic peptides. […] Human α-thrombin (Molecular Innovations) and rat α-thrombin (Molecular Innovations) were used at final concentrations of 2 nM and 3 nM, respectively, and fluorogenic substrate (Z-Gly-Gly-Arg-AMC, Bachem) was used at a concentration of 50 μM. Enzymatic activity was determined by measuring fluorescent gain on a Tecan Infinite M200 Pro microplate reader (excitation: 360 nm, emission: 465 nm) or a PHERAstar FSX microplate reader (excitation: 380 nm, emission: 440 nm) for 30 min at 25 °C with a fluorescent readout every 3 min. The two instruments were controlled with Tecan Infinite M200 Pro instrument software (iControl, version 1.12) and PHERAstar FSX software (version 5.70, edition 8), respectively. Protease inhibition was calculated by comparing the enzymatic activity to a control without cyclic peptide.
(§2) Half maximal inhibitory concentration (IC50) values were determined using a four-parameter logistic regression model in GraphPad Prism 9 to fit sigmoidal curves to the acquired data points according to equation (2) below.2 y=b+a−b/1+10^(logIC50−x)p where a and b represent the measured inhibition maximum and minimum, respectively; x is the logarithm of peptide concentration; y is the thrombin activity compared to a control without the cyclic peptide; and p is the Hill coefficient.
(§3) Ki values were calculated using the IC50 and the Cheng–Prusoff equation (equation (3)).3 Ki=IC50/1+S0/Km where Km is the Michaelis–Menten constant of the enzyme for the substrate used in the assay, and [S]0 is the initial substrate concentration.

rat α-thrombin = target: T1, rat α-thrombin (Rattus norvegicus, UniProt P18292); test: Protease inhibition, Ki for rat α-thrombin (fluorogenic substrate Z-Gly-Gly-Arg-AMC); format: biochemical; details: for Rat alpha thrombin inhibition, slope normalized to DMSO: replicates R1-R3
T1 construct: rat α-thrombin (Molecular Innovations) were used at final concentrations of 2 nM and 3 nM; purchased Molecular Innovations
Method: as §1, §2, §3

[2] = peptide concentration 1.00E+02 uM
[3] = peptide concentration 1.19E-05 uM
[4] = peptide concentration 1.22E-02 uM
[5] = peptide concentration 1.25E+01 uM
[6] = peptide concentration 1.53E-03 uM
[7] = peptide concentration 1.56E+00 uM
[8] = peptide concentration 1.91E-04 uM
[9] = peptide concentration 1.95E-01 uM
[10] = peptide concentration 2.38E-05 uM
[11] = peptide concentration 2.44E-02 uM
[12] = peptide concentration 2.50E+01 uM
[13] = peptide concentration 3.05E-03 uM
[14] = peptide concentration 3.12E+00 uM
[15] = peptide concentration 3.81E-04 uM
[16] = peptide concentration 3.91E-01 uM
[17] = peptide concentration 4.77E-05 uM
[18] = peptide concentration 4.88E-02 uM
[19] = peptide concentration 5.00E+01 uM
[20] = peptide concentration 6.10E-03 uM
[21] = peptide concentration 6.25E+00 uM
[22] = peptide concentration 7.63E-04 uM
[23] = peptide concentration 7.81E-01 uM
[24] = peptide concentration 9.54E-05 uM
[25] = peptide concentration 9.77E-02 uM

SMILES: O=C1C[C@H]2CCCN2C(=O)[C@H](Cc2ccccc2)NC(=O)[C@@H](NC(=O)c2ccc(Cl)s2)CC=CCCN1 [compound 38]
- PAMPA permeability: % permeability ([1]; 50 μM, 12–18 h, acceptor concentration relative to equilibrium): 32 ± 6%
- Permeability% (single replicates R1–R3) ([1]; 50 μM, 13 h (Fig. 5d)): 25.39% and 36.84% and 33.06%
- Permeability% Average ([1]; 50 μM, 13 h (Fig. 5d)): 31.8%
- Papp at 50 μM ([1]; PAMPA, pH 7.4): 3.47 ×10⁻⁶ cm/s
- Ki (human α-thrombin; average of R1-R3, read-out: Human alpha thrombin inhibition, Ki Average): 13.5 µM
- Human alpha thrombin inhibition, slope normalized to DMSO (human α-thrombin; [2]): 31.6 and 35.9 and 30.7
- Human alpha thrombin inhibition, slope normalized to DMSO (human α-thrombin; [3]): 101.3 and 100.2 and 102.3
- Human alpha thrombin inhibition, slope normalized to DMSO (human α-thrombin; [4]): 84.3 and 92.4 and 75.3
- Human alpha thrombin inhibition, slope normalized to DMSO (human α-thrombin; [5]): 48.4 and 51.8 and 74.4
- Human alpha thrombin inhibition, slope normalized to DMSO (human α-thrombin; [6]): 103.9 and 109.7 and 90.7
- Human alpha thrombin inhibition, slope normalized to DMSO (human α-thrombin; [7]): 99.7 and 78.4 and 78.8
- Human alpha thrombin inhibition, slope normalized to DMSO (human α-thrombin; [8]): 77.5 and 96.9 and 61.6
- Human alpha thrombin inhibition, slope normalized to DMSO (human α-thrombin; [9]): 89.1 and 92.2 and 110.9
- Human alpha thrombin inhibition, slope normalized to DMSO (human α-thrombin; [10]): 100.0 and 95.0 and 108.2
- Human alpha thrombin inhibition, slope normalized to DMSO (human α-thrombin; [11]): 94.6 and 85.5 and 101.2
- Human alpha thrombin inhibition, slope normalized to DMSO (human α-thrombin; [12]): 53.9 and 24.7 and 59.2
- Human alpha thrombin inhibition, slope normalized to DMSO (human α-thrombin; [13]): 85.8 and 106.8 and 92.3
- Human alpha thrombin inhibition, slope normalized to DMSO (human α-thrombin; [14]): 95.0 and 56.6 and 60.0
- Human alpha thrombin inhibition, slope normalized to DMSO (human α-thrombin; [15]): 92.8 and 100.9 and 102.1
- Human alpha thrombin inhibition, slope normalized to DMSO (human α-thrombin; [16]): 92.5 and 76.5 and 47.1
- Human alpha thrombin inhibition, slope normalized to DMSO (human α-thrombin; [17]): 103.7 and 96.6 and 101.3
- Human alpha thrombin inhibition, slope normalized to DMSO (human α-thrombin; [18]): 96.6 and 92.9 and 84.5
- Human alpha thrombin inhibition, slope normalized to DMSO (human α-thrombin; [19]): 32.5 and 38.9 and 43.6
- Human alpha thrombin inhibition, slope normalized to DMSO (human α-thrombin; [20]): 87.4 and 95.7 and 97.4
- Human alpha thrombin inhibition, slope normalized to DMSO (human α-thrombin; [21]): 82.6 and 51.0 and 64.7
- Human alpha thrombin inhibition, slope normalized to DMSO (human α-thrombin; [22]): 95.6 and 106.3 and 100.0
- Human alpha thrombin inhibition, slope normalized to DMSO (human α-thrombin; [23]): 102.1 and 69.9 and 79.9
- Human alpha thrombin inhibition, slope normalized to DMSO (human α-thrombin; [24]): 104.1 and 95.0 and 102.4
- Human alpha thrombin inhibition, slope normalized to DMSO (human α-thrombin; [25]): 95.1 and 96.0 and 81.6
- Ki (rat α-thrombin; average of R1-R3, read-out: Rat alpha thrombin inhibition, Ki Average): 5.05 µM
- Rat alpha thrombin inhibition, slope normalized to DMSO (rat α-thrombin; [2]): 15.8 and 16.4 and 8.2
- Rat alpha thrombin inhibition, slope normalized to DMSO (rat α-thrombin; [3]): 106.1 and 100.1 and 101.4
- Rat alpha thrombin inhibition, slope normalized to DMSO (rat α-thrombin; [4]): 97.4 and 88.6 and 86.5
- Rat alpha thrombin inhibition, slope normalized to DMSO (rat α-thrombin; [5]): 49.8 and 47.2 and 35.5
- Rat alpha thrombin inhibition, slope normalized to DMSO (rat α-thrombin; [6]): 108.8 and 100.7 and 95.7
- Rat alpha thrombin inhibition, slope normalized to DMSO (rat α-thrombin; [7]): 89.9 and 88.6 and 50.7
- Rat alpha thrombin inhibition, slope normalized to DMSO (rat α-thrombin; [8]): 112.7 and 100.1 and 96.0
- Rat alpha thrombin inhibition, slope normalized to DMSO (rat α-thrombin; [9]): 101.4 and 102.2 and 81.9
- Rat alpha thrombin inhibition, slope normalized to DMSO (rat α-thrombin; [10]): 107.4 and 102.3 and 104.3
- Rat alpha thrombin inhibition, slope normalized to DMSO (rat α-thrombin; [11]): 116.5 and 84.1 and 102.5
- Rat alpha thrombin inhibition, slope normalized to DMSO (rat α-thrombin; [12]): 36.8 and 26.2 and 18.8
- Rat alpha thrombin inhibition, slope normalized to DMSO (rat α-thrombin; [13]): 100.6 and 93.4 and 89.7
- Rat alpha thrombin inhibition, slope normalized to DMSO (rat α-thrombin; [14]): 83.7 and 72.5 and 77.4
- Rat alpha thrombin inhibition, slope normalized to DMSO (rat α-thrombin; [15]): 105.1 and 100.1 and 102.4
- Rat alpha thrombin inhibition, slope normalized to DMSO (rat α-thrombin; [16]): 105.0 and 93.1 and 59.9
- Rat alpha thrombin inhibition, slope normalized to DMSO (rat α-thrombin; [17]): 108.7 and 101.6 and 109.2
- Rat alpha thrombin inhibition, slope normalized to DMSO (rat α-thrombin; [18]): 113.8 and 100.8 and 93.5
- Rat alpha thrombin inhibition, slope normalized to DMSO (rat α-thrombin; [19]): 30.2 and 11.5 and 16.5
- Rat alpha thrombin inhibition, slope normalized to DMSO (rat α-thrombin; [20]): 96.7 and 102.7 and 104.0
- Rat alpha thrombin inhibition, slope normalized to DMSO (rat α-thrombin; [21]): 71.7 and 61.7 and 68.8
- Rat alpha thrombin inhibition, slope normalized to DMSO (rat α-thrombin; [22]): 91.7 and 100.9 and 102.6
- Rat alpha thrombin inhibition, slope normalized to DMSO (rat α-thrombin; [23]): 88.3 and 82.4 and 91.2
- Rat alpha thrombin inhibition, slope normalized to DMSO (rat α-thrombin; [24]): 111.4 and 103.7 and 104.6
- Rat alpha thrombin inhibition, slope normalized to DMSO (rat α-thrombin; [25]): 106.1 and 99.6 and 107.1
- IC50 (rat α-thrombin; single replicates R1-R3, read-out: Rat alpha thrombin inhibition, IC50): 11.8 µM and 9.26 µM and 6.34 µM
- Ki (rat α-thrombin; single replicates R1-R3, read-out: Rat alpha thrombin inhibition, Ki): 6.5 µM and 5.12 µM and 3.51 µM
